Assay results from patent US12427192B2, “Water soluble adjuvant and composition containing same” (Sumitomo Pharma Co., Ltd., priority 2019, dated 2025).

Experiments:
[1] = system: HLA-A*24:02 transgenic mouse; assay: Test 8: in vivo adjuvant activity, vaccine e (Peptide SEQ ID No. 18), IFNγ ELISPOT; settings: added to vaccine e; 0.4 nmol per body, twice; FIG. 5
Experimental: Evaluation of In Vivo Adjuvant Activity in HLA-A*24:02 Transgenic Mouse
The in vivo adjuvant activity of the compound of Example 1 was evaluated in the following procedure. To a vaccine prepared by mixing Peptide SEQ ID No. 18 prepared in Reference example 20 with Montanide ISA 51 VG (hereinafter, referred to as “vaccine e”) was added the compound prepared in Example 1 to prepare a vaccine. The vaccine was administered to a HLA-A*24:02 transgenic mouse, and the adjuvant activity of the vaccine was evaluated by the method of testing antigen-specific CTL induction. The TYAGCLSQIF in Peptide SEQ ID No. 18 corresponds to an antigen peptide derived from an HLA-A*24:02-restricted Or7c1 protein.
The character for inducing CTLs specific to the antigen peptide (SEQ ID No. 18) by vaccine e was evaluated by measuring whether IFNγ can be produced upon stimulation of splenocytes from the mouse with the peptide. In addition, the character for exerting in vivo adjuvant activity by the compound in Example 1 was evaluated by comparing the number of CTLs induced by vaccine e and the number of CTLs induced by the vaccine prepared by adding the compound prepared in Example 1 to vaccine e, and checking presence or absence of the increase on the number.
Specifically, Peptide of SEQ ID No. 18 was dissolved in DMSO, and then diluted with water for injection to concentrations of 3 mg/mL. […]

[2] = system: HLA-A*02:01 transgenic mouse; assay: Test 16: in vivo adjuvant activity, cocktail vaccine k (liposome formulation 1), IFNγ ELISPOT; settings: added to cocktail vaccine k (liposome formulation 1); 0.4 nmol per body, twice; FIG. 19
Experimental: Evaluation of In Vivo Adjuvant Activity in HLA-A*02:01 Transgenic Mouse
The in vivo adjuvant activity of the compound of Example 1 was evaluated in the following procedure. To a vaccine (liposome formulation 1) comprising Compound of formula 4 prepared in Reference example 8 and Peptide SEQ ID No. 3 prepared in Reference example 3 (hereinafter, referred to as “cocktail vaccine k”) was added the compound prepared in Example 1 to prepare a vaccine. The vaccine was administered to a HLA-A*02:01 transgenic mouse, and the adjuvant activity of the vaccine was evaluated by the method of testing antigen-specific CTL induction.
For example, the above liposome formulation 1 was prepared as follows. 47.1 mg of hydrogenated soybean phosphatidylcholine and 15.47 mg of cholesterol were dissolved in t-butyl alcohol, and the mixture was lyophilized. […]
Cocktail vaccine k was injected to mice intradermally at the tail base area in an amount for administering 500 μg of Compound of formula 4 per body and 375 μg of Peptide SEQ ID No. 3 per body. […] Then, after removal of the supernatant from the wells, stained spots on the ELISPOT plate were counted.

[3] = Spleen weight in the mice tested in Tests 11-18; type: in vivo, mouse

For `CCCCCNc1nc(N)nc(C)c1Cc1ccc(CN(C)CCOCCOCCOCCOCCO)cc1OC` [Example 1, 1-(4-{[2-amino-4-methyl-6-(pentylamino)pyrimidin-5-yl]methyl}-3-methoxyphenyl)-2-methyl-5,8,11,14-tetraoxa-2-azahexadecan-16-ol·trifluoroacetate], the “CTL counts responsive to Peptide of SEQ ID No. 18 compared with adding no compound” value [1] was “more”, the “CTL counts responsive to Peptide SEQ ID No. 1 compared with adding no compound” value [2] was “more” and the spleen weight ([3]; mice tested in Tests 11-13 (emulsified compositions), FIG. 26) was “does not induce a pronounced increase of spleen weight”. For the same compound, the spleen weight ([3]; mice tested in Tests 14 and 15 (oily suspension, hydrogel), FIG. 27) was “does not induce a pronounced increase of spleen weight” and the spleen weight ([3]; mice tested in Tests 16-18 (liposome formulations), FIG. 28) was “does not induce a pronounced increase of spleen weight”.
